biological target: Aldo-keto reductase family 1 member B1 (Rattus norvegicus, UniProt P07943); test: Inhibitory concentration against aldose reductase obtained from rat lens

Going from `COc1ccc(S(=O)(=O)Nc2ccccc2C(=O)O)cc1` to `Cc1ccc(S(=O)(=O)Nc2ccccc2C(=O)O)cc1`, the IC50 falls from 130 µM to 69 µM (1.9-fold).

`O=C(O)CN(c1ccccc1)S(=O)(=O)c1ccc(F)cc1` and `O=C(O)CN(c1ccc(F)cc1)S(=O)(=O)c1ccccc1` are within 1.5-fold of each other in IC50: 26 µM for the first, 22 µM for the second.

First: Nc1ccc(N(CC(=O)O)S(=O)(=O)c2ccccc2)cc1
Second: Nc1ccc(S(=O)(=O)N(CC(=O)O)c2ccccc2)cc1
The IC50 of the first is 7.3-fold higher: 68 µM for the first, 9.3 µM for the second.

First: O=C(O)CN(c1ccccc1)S(=O)(=O)c1ccc(NC(=O)c2ccccc2)cc1
Second: O=C(O)CN(c1ccccc1)S(=O)(=O)c1ccccc1
The IC50 of the first is 76-fold lower: 0.38 µM for the first, 29 µM for the second. The first is the more potent here.

First: O=C(O)C(NS(=O)(=O)c1ccc2ccccc2c1)c1ccccc1 (single isomer, unassigned; 6m)
Second: O=C(O)[C@H](NS(=O)(=O)c1ccccc1)c1ccccc1
The IC50 of the first is 2-fold lower: 230 µM for the first, 460 µM for the second. The first is the more potent here.

First: O=C(O)[C@H](NS(=O)(=O)c1ccc([N+](=O)[O-])cc1)c1ccccc1
Second: O=C(O)[C@@H](NS(=O)(=O)c1ccc([N+](=O)[O-])cc1)c1ccccc1
The IC50 of the first is 110-fold higher: 980 µM for the first, 8.6 µM for the second. The second is the more potent here.

Going from `O=C(O)[C@H](NS(=O)(=O)c1ccc(Cl)cc1)c1ccccc1` to `O=C(O)[C@@H](NS(=O)(=O)c1ccc(Cl)cc1)c1ccccc1`, the IC50 falls from 340 µM to 7.1 µM (48-fold).

Compared with `CN(c1ccccc1C(=O)O)S(=O)(=O)c1ccc2ccccc2c1`, `O=C(O)c1ccccc1NS(=O)(=O)c1ccc2ccccc2c1` is 70-fold lower in IC50: 400 µM for the first, 5.7 µM for the second.

Going from `O=C(O)CNS(=O)(=O)c1ccc(NC(=O)c2ccccc2)cc1` to `O=C(O)CNS(=O)(=O)c1ccccc1`, the IC50 rises from 0.88 µM to 130 µM (150-fold).

Going from `O=C(O)c1ccccc1NS(=O)(=O)c1ccc(Cl)cc1` to `O=C(O)c1ccccc1NS(=O)(=O)c1ccc(Br)cc1`, the IC50 falls from 130 µM to 85 µM (1.5-fold). The second is the more potent here.

Compared with `O=C(O)CN(c1cccc(Cl)c1)S(=O)(=O)c1ccccc1`, `Cc1cccc(N(CC(=O)O)S(=O)(=O)c2ccccc2)c1` is 2.1-fold higher in IC50: 13 µM for the first, 27 µM for the second.

Compared with `O=C(O)CN(c1ccccc1)S(=O)(=O)c1ccc2ccccc2c1`, `COc1ccc(S(=O)(=O)N(CC(=O)O)c2ccccc2)cc1` is 2.5-fold lower in IC50: 4.5 µM for the first, 1.8 µM for the second. The second is the more potent here.

Compared with `Cc1ccccc1N(CC(=O)O)S(=O)(=O)c1ccccc1`, `O=C(O)CN(c1ccccc1Cl)S(=O)(=O)c1ccccc1` is 45-fold lower in IC50: 340 µM for the first, 7.6 µM for the second. The second is the more potent here.

Compared with `O=C(O)CN(c1ccccc1)S(=O)(=O)c1ccccc1[N+](=O)[O-]`, `Nc1ccccc1S(=O)(=O)N(CC(=O)O)c1ccccc1` is 19-fold higher in IC50: 3.6 µM for the first, 67 µM for the second.

Going from `O=C(O)[C@H](NS(=O)(=O)c1ccc(F)cc1)c1ccccc1` to `O=C(O)[C@@H](NS(=O)(=O)c1ccc(F)cc1)c1ccccc1`, the IC50 falls from 960 µM to 25 µM (38-fold). The second is the more potent here.

Compared with `O=C(O)CNS(=O)(=O)c1ccc([N+](=O)[O-])cc1`, `O=C(O)CNS(=O)(=O)c1ccc(Cl)cc1` is 1.6-fold higher in IC50: 79 µM for the first, 130 µM for the second. The first is the more potent here.

Compared with `O=C(O)c1ccccc1NS(=O)(=O)c1ccccc1`, `Nc1ccc(S(=O)(=O)Nc2ccccc2C(=O)O)cc1` is 8.2-fold lower in IC50: 65 µM for the first, 7.9 µM for the second. The second is the more potent here.

First: O=C(O)CNS(=O)(=O)c1ccc2ccccc2c1
Second: COc1ccc(S(=O)(=O)NCC(=O)O)cc1
The IC50 of the first is 78-fold lower: 0.4 µM for the first, 31 µM for the second. The first is the more potent here.

Compared with `Cc1ccc(S(=O)(=O)N[C@@H](C(=O)O)c2ccccc2)cc1`, `Cc1ccc(S(=O)(=O)N[C@H](C(=O)O)c2ccccc2)cc1` is 10-fold lower in IC50: 90 µM for the first, 8.9 µM for the second. The second is the more potent here.

Going from `COc1ccc(S(=O)(=O)N[C@@H](C(=O)O)c2ccccc2)cc1` to `COc1ccc(S(=O)(=O)N[C@H](C(=O)O)c2ccccc2)cc1`, the IC50 falls from 36 µM to 13 µM (2.8-fold). The second is the more potent here.

Going from `O=C(O)CN(c1ccc(Cl)cc1)S(=O)(=O)c1ccccc1` to `O=C(O)CN(c1ccccc1)S(=O)(=O)c1ccc(Cl)cc1`, the IC50 falls from 27 µM to 16 µM (1.7-fold). The second is the more potent here.

Going from `O=C(O)CN(c1cccc([N+](=O)[O-])c1)S(=O)(=O)c1ccccc1` to `O=C(O)CN(c1ccccc1)S(=O)(=O)c1cccc([N+](=O)[O-])c1`, the IC50 falls from 8.7 µM to 1.3 µM (6.7-fold).

`CN(c1ccccc1C(=O)O)S(=O)(=O)c1ccc([N+](=O)[O-])cc1` and `COc1ccc(S(=O)(=O)N(C)c2ccccc2C(=O)O)cc1` cannot be ordered by IC50: greater than 2000 µM for the first, greater than 2000 µM for the second.

First: O=C(O)[C@@H](NS(=O)(=O)c1ccccc1)c1ccccc1
Second: O=C(O)C(NS(=O)(=O)c1ccc2ccccc2c1)c1ccccc1 (single isomer, unassigned; 6n)
The IC50 of the first is 4.4-fold higher: 11 µM for the first, 2.5 µM for the second. The second is the more potent here.

Going from `O=C(O)CN(c1ccccc1)S(=O)(=O)c1ccc([N+](=O)[O-])cc1` to `Cc1ccc(S(=O)(=O)N(CC(=O)O)c2ccccc2)cc1`, the IC50 rises from 4.4 µM to 14 µM (3.2-fold). The first is the more potent here.

`COc1ccc(N(CC(=O)O)S(=O)(=O)c2ccccc2)cc1` and `Cc1ccc(N(CC(=O)O)S(=O)(=O)c2ccccc2)cc1` are within 1.5-fold of each other in IC50: 38 µM for the first, 26 µM for the second.

First: O=C(O)CNS(=O)(=O)c1ccccc1[N+](=O)[O-]
Second: Nc1ccccc1S(=O)(=O)NCC(=O)O
The IC50 of the first is 2.8-fold lower: 13 µM for the first, 37 µM for the second. The first is the more potent here.

First: O=C(O)c1ccccc1NS(=O)(=O)c1ccc([N+](=O)[O-])cc1
Second: O=C(O)c1ccccc1NS(=O)(=O)c1cccc2ccccc12
The IC50 of the first is 47-fold higher: 390 µM for the first, 8.3 µM for the second.

First: Nc1cccc(S(=O)(=O)N(CC(=O)O)c2ccccc2)c1
Second: O=C(O)CNS(=O)(=O)c1ccc(F)cc1
The IC50 of the first is 1.6-fold lower: 27 µM for the first, 43 µM for the second.

Molecule `Cc1ccc(S(=O)(=O)NCC(=O)O)cc1` has an IC50 of 32 µM.

Reference: ChEMBL document CHEMBL1124315, “N- and 2-substituted N-(phenylsulfonyl)glycines as inhibitors of rat lens aldose reductase” (J Med Chem, 1989)
